# Source: ChEMBL document CHEMBL1201862, “PubChem BioAssay data set” (2004)
# Active and inactive are the calls of the source.
# Tests used:
# [1] = biological target: ADP-ribosylation factor GTPase-activating protein 1 (Rattus norvegicus, UniProt Q62848); experiment: Fluorescence polarization-based biochemical high throughput dose response screening assay to identify inhibitors of ADP-ribosylation factor GTPase activating protein 1 (ARFGAP1).; type: functional
# [2] = biological target: Tyrosine-protein phosphatase non-receptor type 22 (Homo sapiens, UniProt Q9Y2R2); experiment: PTPN22 phosphatase inhibition, dose response, selectivity assay for STEP inhibitor project, biochemical (AID 624241); type: functional
# Chain of Tyrosine-protein phosphatase non-receptor type 22 (Q9Y2R2 whole entry): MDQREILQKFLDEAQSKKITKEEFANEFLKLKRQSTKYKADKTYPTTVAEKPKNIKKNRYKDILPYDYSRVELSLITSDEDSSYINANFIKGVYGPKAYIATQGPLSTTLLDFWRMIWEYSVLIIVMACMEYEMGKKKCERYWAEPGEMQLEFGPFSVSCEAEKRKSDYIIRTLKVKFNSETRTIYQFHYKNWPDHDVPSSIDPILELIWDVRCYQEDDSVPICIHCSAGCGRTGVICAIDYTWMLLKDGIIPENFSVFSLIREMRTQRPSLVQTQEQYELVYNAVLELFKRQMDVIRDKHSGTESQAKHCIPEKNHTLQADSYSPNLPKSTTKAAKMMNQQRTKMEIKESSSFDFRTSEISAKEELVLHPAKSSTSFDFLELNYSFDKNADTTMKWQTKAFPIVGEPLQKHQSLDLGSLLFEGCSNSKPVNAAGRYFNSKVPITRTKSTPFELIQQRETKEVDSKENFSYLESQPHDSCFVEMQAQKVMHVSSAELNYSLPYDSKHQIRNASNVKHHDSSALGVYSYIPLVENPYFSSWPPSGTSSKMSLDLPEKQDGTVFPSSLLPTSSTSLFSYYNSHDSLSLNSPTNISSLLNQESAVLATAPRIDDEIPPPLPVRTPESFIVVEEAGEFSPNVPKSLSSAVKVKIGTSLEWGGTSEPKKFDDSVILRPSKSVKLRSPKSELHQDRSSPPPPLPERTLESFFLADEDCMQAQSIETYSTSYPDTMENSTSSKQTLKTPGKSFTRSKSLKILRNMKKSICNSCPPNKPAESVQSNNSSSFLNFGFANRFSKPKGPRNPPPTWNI
# [3] = biological target: T1, Tyrosine-protein phosphatase non-receptor type 5 (Homo sapiens, UniProt P54829); experiment: STEP phosphatase inhibitors, confirmation, biochemical, fluorescence intensity, uHTS hits (AID 602372); type: functional; conditions: read-out: IC50_Mean
# T1 sequence (P54829 whole entry): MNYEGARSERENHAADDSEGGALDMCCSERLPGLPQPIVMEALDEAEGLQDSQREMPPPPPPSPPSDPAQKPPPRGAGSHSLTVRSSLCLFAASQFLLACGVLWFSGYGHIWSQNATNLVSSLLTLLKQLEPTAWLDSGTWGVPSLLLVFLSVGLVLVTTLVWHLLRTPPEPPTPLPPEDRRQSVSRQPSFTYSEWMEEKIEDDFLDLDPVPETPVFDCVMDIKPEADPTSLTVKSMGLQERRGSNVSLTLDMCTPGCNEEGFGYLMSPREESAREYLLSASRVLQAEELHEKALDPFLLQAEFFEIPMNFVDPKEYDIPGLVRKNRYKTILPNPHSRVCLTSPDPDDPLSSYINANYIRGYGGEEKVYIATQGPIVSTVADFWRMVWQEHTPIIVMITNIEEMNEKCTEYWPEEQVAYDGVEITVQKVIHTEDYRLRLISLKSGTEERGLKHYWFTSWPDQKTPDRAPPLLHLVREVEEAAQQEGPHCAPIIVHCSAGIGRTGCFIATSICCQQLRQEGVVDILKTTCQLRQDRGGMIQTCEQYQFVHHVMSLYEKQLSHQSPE
# [4] = biological target: G-protein coupled receptor 55 (Homo sapiens, UniProt Q9Y2T6); experiment: GPR55 antagonists blocking LPI-driven arrestin recruitment, primary screen, imaging, U2OS, beta-arrestin-GFP, LPI agonist (AID 2013); type: functional;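 also: antagonist potency measured as reduced agonist-driven arrestin aggregation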
# Chain of G-protein coupled receptor 55 (Q9Y2T6 whole entry): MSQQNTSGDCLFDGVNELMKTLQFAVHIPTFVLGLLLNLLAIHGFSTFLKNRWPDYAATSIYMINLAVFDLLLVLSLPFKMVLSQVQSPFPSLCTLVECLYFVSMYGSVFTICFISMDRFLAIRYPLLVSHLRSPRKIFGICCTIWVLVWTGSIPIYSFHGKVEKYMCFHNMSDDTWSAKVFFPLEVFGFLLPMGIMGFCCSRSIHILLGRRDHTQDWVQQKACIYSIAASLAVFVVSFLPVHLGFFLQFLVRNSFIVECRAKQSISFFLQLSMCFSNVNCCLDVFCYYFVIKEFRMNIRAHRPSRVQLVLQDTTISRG
# [5] = biological target: Dual specificity protein phosphatase 3 (Homo sapiens, UniProt P51452); experiment: VHR phosphatase inhibition, dose response, selectivity assay for STEP inhibitor project, biochemical (AID 602374); type: functional; conditions: read-out: IC50_Mean
# Chain of Dual specificity protein phosphatase 3 (P51452 whole entry): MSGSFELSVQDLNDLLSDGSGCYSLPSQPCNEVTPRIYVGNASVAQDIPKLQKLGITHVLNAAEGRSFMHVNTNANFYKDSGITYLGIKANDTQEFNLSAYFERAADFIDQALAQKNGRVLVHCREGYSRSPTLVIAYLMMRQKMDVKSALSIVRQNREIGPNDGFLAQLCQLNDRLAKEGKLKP
# [6] = biological target: T2, Tyrosine-protein phosphatase non-receptor type 11 (Homo sapiens, UniProt Q06124); experiment: SHP2 phosphatase inhibition, dose response, selectivity assay for STEP inhibitor project, biochemical (AID 602367); type: functional; conditions: read-out: IC50_Mean
# T2 sequence (Q06124 whole entry): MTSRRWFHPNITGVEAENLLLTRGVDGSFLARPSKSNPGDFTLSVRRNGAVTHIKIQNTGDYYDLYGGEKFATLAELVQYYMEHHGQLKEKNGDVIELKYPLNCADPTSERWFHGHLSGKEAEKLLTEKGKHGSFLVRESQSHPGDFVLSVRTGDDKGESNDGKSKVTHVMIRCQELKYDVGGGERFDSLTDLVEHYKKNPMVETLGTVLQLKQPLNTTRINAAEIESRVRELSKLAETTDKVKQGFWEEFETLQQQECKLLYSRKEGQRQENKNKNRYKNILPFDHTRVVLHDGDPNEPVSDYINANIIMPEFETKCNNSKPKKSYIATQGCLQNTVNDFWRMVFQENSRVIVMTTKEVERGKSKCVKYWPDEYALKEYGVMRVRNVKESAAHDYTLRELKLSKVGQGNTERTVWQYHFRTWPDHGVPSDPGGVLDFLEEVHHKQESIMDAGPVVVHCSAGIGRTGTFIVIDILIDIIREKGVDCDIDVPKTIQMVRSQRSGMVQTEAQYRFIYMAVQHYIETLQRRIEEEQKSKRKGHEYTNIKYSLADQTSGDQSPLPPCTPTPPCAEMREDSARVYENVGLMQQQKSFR
# [7] = biological target: T3, Rac GTPase-activating protein 1 (Homo sapiens, UniProt Q9H0H5); experiment: MgcRacGAP GTPase-activating activity inhibitors, confirmation, biochemical, ADP Hunter fluorescence, primary and confirmatory (AID 624330); type: functional
# T3 sequence (Q9H0H5 whole entry): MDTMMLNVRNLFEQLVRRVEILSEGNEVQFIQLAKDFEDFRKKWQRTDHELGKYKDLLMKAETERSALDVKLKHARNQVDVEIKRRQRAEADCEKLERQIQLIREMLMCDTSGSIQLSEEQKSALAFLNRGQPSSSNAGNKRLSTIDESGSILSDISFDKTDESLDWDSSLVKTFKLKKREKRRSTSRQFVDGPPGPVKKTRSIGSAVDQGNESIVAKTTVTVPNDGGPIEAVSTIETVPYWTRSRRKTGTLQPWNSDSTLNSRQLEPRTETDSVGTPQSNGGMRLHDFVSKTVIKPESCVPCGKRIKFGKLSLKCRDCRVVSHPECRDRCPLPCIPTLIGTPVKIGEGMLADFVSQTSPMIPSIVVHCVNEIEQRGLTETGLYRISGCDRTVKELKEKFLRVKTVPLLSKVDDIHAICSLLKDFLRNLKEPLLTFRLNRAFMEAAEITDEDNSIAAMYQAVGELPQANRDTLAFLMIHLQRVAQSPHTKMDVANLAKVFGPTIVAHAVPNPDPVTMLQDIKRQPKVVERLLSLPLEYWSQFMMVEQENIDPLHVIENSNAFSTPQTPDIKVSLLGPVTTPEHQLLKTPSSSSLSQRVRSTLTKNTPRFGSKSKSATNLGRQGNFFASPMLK
# [8] = HeLa cell cytotoxicity, dose response, cytotoxicity control for MgcRacGAP inhibitor project (AID 624300); type: functional
# [9] = biological target: Nonstructural protein 1 (Influenza A virus, UniProt Q194T2); type: functional, Influenza A virus (A/California/07/2009(H1N1))
# Chain of Nonstructural protein 1 (Q194T2 whole entry): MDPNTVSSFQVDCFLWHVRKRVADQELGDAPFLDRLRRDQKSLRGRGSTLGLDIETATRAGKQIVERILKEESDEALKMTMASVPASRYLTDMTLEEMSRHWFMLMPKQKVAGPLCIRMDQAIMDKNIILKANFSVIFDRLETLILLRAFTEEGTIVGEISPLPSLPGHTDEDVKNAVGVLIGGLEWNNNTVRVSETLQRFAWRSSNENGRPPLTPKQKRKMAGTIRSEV
# [10] = Counterscreen for inhibitors of Trypanosoma brucei methionyl tRNA synthetase (MetRS): Luminescence-based cell-based high throughput dose response assay to identify compounds that are cytotoxic to Jurkat human T lymphocyte cells.; type: functional; conditions: Homo sapiens, Jurkat
# [11] = biological target: T4, Methionyl-tRNA synthetase, putative (Trypanosoma brucei brucei, UniProt Q38C91); type: functional, Trypanosoma brucei brucei strain 927/4 GUTat10.1
# T4 sequence (Q38C91 whole entry): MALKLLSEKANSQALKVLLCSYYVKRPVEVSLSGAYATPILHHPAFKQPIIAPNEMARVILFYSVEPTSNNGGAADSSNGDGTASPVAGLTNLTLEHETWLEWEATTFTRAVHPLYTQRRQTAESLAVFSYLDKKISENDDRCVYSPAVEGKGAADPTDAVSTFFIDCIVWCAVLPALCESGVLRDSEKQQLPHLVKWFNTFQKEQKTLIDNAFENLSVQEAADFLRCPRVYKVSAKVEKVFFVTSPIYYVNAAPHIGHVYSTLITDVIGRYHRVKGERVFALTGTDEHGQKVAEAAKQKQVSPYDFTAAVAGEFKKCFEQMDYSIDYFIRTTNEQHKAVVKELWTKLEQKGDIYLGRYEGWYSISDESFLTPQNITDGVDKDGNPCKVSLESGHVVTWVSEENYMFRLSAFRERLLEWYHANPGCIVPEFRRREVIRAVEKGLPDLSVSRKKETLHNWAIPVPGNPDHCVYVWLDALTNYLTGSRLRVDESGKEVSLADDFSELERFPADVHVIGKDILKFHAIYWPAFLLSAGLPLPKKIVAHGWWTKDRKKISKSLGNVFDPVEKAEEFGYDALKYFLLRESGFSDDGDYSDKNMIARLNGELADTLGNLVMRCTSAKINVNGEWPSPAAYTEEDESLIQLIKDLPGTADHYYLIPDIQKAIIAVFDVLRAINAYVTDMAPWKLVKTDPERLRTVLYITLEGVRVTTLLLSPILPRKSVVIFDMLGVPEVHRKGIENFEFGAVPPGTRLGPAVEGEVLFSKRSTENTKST
# [12] = biological target: T4, Methionyl-tRNA synthetase, putative; type: functional, Trypanosoma brucei brucei strain 927/4 GUTat10.1; remark: listed apart in the source
# [13] = Fluorescence-based cell-based high throughput dose response assay for inhibitors of the interaction of nucleotide-binding oligomerization domain containing 2 (NOD2) and the receptor-interacting serine-threonine kinase 2 (RIPK2).; type: functional; conditions: Homo sapiens
# [14] = biological target: T5, Protein RecA (Mycobacterium tuberculosis, UniProt P9WHJ3); experiment: Fluorescence Cell-Free Homogeneous Dose Retest to Identify Inhibitors of RecA-Intein Splicing Activity. [Related pubchem assays (depositor defined):AID2097, AID2223, AID489010, AID492950]; type: functional
# T5 sequence (P9WHJ3 whole entry): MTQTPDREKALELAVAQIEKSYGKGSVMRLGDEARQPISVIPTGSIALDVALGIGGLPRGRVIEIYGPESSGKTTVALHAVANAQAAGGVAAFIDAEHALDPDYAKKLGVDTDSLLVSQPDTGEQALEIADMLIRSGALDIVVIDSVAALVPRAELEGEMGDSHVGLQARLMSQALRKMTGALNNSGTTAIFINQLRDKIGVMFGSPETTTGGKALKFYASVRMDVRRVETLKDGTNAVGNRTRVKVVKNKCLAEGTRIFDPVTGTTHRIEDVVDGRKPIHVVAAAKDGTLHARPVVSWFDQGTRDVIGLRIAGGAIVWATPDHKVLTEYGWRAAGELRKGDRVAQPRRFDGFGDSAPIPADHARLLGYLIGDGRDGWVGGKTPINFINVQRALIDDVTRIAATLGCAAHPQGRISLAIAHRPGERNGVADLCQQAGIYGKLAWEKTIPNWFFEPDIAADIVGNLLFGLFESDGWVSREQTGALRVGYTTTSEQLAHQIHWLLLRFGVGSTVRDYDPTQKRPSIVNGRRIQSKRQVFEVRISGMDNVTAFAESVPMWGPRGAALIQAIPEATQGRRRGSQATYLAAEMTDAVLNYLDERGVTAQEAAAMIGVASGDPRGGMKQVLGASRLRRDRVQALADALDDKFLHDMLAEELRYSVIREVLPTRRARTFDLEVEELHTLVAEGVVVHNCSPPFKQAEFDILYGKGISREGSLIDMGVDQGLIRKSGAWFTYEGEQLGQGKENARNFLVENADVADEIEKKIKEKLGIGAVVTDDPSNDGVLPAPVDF
# [15] = THP-1 cell cytotoxicity, dose response, cytotoxicity control for non-replicating M. tuberculosis project (AID 489025); type: functional
# [16] = Vero E6 cell cytotoxicity, dose response, cytotoxicity control for non-replicating M. tuberculosis project, secondary assay (AID 492998); type: functional, VeroE6; conditions: Vero C1008
# [17] = cells; type: functional
# [18] = biological target: T6, Replicative DNA helicase DnaB (Mycobacterium tuberculosis, UniProt P9WMR3); experiment: DnaB intein splicing inhibitors, dose response, biochemical, cell-free fluorescence (AID 449749); type: functional
# T6 sequence (P9WMR3 whole entry): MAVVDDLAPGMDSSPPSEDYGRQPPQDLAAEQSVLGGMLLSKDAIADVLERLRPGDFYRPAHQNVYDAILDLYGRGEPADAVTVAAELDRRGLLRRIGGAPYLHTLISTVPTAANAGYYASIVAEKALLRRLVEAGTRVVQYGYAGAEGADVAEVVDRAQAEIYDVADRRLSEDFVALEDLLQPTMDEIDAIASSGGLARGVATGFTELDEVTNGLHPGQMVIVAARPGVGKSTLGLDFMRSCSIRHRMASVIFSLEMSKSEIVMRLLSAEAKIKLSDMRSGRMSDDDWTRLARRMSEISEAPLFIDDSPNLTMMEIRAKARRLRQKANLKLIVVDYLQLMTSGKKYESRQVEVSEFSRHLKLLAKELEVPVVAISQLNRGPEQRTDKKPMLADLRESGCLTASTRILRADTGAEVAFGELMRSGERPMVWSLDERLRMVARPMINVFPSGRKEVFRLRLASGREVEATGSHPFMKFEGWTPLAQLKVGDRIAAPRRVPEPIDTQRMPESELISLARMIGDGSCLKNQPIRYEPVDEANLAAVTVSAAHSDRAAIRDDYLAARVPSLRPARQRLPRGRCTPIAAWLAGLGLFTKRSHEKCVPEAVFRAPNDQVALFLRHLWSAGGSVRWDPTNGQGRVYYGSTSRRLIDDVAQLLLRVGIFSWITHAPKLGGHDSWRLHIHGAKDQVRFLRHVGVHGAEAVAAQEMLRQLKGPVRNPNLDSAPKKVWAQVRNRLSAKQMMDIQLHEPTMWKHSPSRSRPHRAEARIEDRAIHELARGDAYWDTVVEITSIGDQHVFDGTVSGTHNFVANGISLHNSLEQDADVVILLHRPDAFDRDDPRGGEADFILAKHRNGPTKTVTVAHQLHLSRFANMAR
# [19] = biological target: T7, Low molecular weight phosphotyrosine protein phosphatase (Homo sapiens, UniProt P24666); type: functional; conditions: read-out: IC50_Mean
# T7 sequence (P24666 whole entry): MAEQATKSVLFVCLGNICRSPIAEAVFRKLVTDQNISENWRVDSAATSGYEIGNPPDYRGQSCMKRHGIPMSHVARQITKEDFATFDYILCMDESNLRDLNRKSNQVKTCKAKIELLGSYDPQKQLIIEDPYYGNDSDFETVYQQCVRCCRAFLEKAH
# Chain of ADP-ribosylation factor GTPase-activating protein 1 (Q62848 whole entry): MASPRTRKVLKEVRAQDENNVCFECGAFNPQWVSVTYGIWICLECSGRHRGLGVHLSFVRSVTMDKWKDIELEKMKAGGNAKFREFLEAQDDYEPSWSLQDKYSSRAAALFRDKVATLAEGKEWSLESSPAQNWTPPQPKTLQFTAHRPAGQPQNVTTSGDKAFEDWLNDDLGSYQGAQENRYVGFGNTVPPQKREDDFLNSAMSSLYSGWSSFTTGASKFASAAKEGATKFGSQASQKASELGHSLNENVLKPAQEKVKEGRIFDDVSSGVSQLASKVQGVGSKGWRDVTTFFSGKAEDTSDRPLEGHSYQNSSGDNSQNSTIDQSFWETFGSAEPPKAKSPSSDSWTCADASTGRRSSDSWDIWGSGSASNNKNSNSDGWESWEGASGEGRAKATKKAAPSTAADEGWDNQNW
smiles,measurement,setting,value
Cc1cc(OCC(=O)Nc2cccnc2)c2c(C)c(C)c(=O)oc2c1,IC50,[1],64.9 µM (inactive)
COc1ccccc1NS(=O)(=O)c1cc(NC(=S)NCCN2CCOCC2)ccc1N1CCOCC1,IC50,[2],31.4 µM (inactive)
same,IC50,[3],8.37 µM (active)
same,IC50,[4],3.2 µM (active)
same,IC50,[5],0.498 µM (active)
same,IC50,[6],0.891 µM (active)
COc1ccc2c(c1)-c1c(ssc1=S)C(C)(C)N2,IC50,[7],29.4 µM (active)
same,CC50,[8],100 µM (active)
same,IC50,[9],22.7 µM (active)
O=S(=O)(c1ccc2[nH]c(SCc3ccc(Cl)cc3)nc2c1)N1CCOCC1,IC50,[10],16.9 µM (inactive)
O=S(=O)(c1ccc2nc(SCc3ccc(Cl)cc3)[nH]c2c1)N1CCOCC1,IC50,[11],32.3 µM (inactive)
same,IC50,[12],30.8 µM (inactive)
Cc1noc2ncnc(Sc3ccccc3Cl)c12,IC50,[13],4.4 µM (active)
same,EC50,[14],4.04 µM (active)
same,CC50,[15],20.2 µM (active)
same,CC50,[16],16.9 µM (active)
same,IC50,[17],9.99 µM (active)
same,AC50,[18],12.2 µM (active)
NC(=S)NN=C1Cc2cccc3cccc1c23,IC50,[19],4.94 µM (active)
